Where a name gives a salt, the structure may show the parent alone.
target: AaDOP2 (Aedes aegypti, UniProt H6D5H2); experiment: AaDOP2 antagonist screen of the LOPAC1280 library (HEK-CRELuc-Aadop2 cells, luminescence); format: cell-based; details: not given
Sequence (H6D5H2 1-476): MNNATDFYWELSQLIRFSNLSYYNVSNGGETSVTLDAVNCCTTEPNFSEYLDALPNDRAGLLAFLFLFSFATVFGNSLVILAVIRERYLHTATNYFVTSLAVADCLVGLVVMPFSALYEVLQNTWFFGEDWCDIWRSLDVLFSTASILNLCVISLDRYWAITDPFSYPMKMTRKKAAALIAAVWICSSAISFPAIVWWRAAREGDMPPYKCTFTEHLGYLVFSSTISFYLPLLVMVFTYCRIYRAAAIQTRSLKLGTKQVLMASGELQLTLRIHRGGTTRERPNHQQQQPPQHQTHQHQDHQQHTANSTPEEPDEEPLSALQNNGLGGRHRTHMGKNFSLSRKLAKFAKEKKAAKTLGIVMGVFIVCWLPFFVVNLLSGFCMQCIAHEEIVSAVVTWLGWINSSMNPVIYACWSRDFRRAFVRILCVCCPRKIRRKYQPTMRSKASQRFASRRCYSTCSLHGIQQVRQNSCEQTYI

Structure (SMILES) | Compound effect (percent receptor signaling in presence of test compound, relative lux units relative to the SCH23390 control) | % of the SCH23390 effect (percent inhibition of receptor response relative to the SCH23390 control) [%]
CN1[C@@H]2CC[C@H]1C[C@@H](OC(=O)[C@H](CO)c1ccccc1)C2 [Compound 609, L-Hyoscyamine] | 75 | –
Oc1ccc(O)cc1 [Compound 610, Hydroquinone] | 89 | –
S=C=Nc1ccc2oc(C3=NCCN3)cc2c1 [Compound 611, BU99006] | 104 | –
Cl.Cl.NNCc1cccc(O)c1 [Compound 612, 3-Hydroxybenzylhydrazine dihydrochloride] | 104 | –
CCCc1c(OCCCOc2ccc(OCC(=O)O)cc2)ccc(C(C)=O)c1O [Compound 614, L-165,041] | 116 | –
N[C@@H](Cc1c[nH]c2ccc(O)cc12)C(=O)O [Compound 615, 5-Hydroxy-L-tryptophan] | 126 | –
NNC(=O)c1ccc(O)cc1 [Compound 617, 4-Hydroxybenzhydrazide] | 78 | –
C[N+]1(C)CCOC(O)(c2ccc(-c3ccc(C4(O)C[N+](C)(C)CCO4)cc3)cc2)C1 (centres unmarked) [Compound 618, Hemicholinium-3] | 106 | –
Br.CCCN(CCC)[C@@H]1CCc2cccc(O)c2C1 [Compound 624, R-(+)-8-Hydroxy-DPAT hydrobromide] | 89 | –
COc1[nH]c2ccc(F)cc2c1C(=O)OCC1CCN(CCNS(C)(=O)=O)CC1.NS(=O)(=O)O [Compound 626, GR 125487 sulfamate salt] | 87 | –
Br.C[N+](C)(C)CCCCCNCC12CC3CC(CC(C3)C1)C2.[Br-] [Compound 627, IEM-1460] | 97 | –
CC(C)C(=O)c1c(C(C)C)nn2ccccc12 [Compound 628, Ibudilast] | 136 | –
Cl.O=C(O)Cc1c[nH]cn1 [Compound 629, Imidazole-4-acetic acid hydrochloride] | 122 | –
O=C1C(SCCO)=C(SCCO)C(=O)c2ccccc21 [Compound 631, NSC 95397] | 17 | 83
O=C1CCC(c2ccc(-n3ccnc3)cc2)=NN1 [Compound 632, Imazodan] | 92 | –
NC(=O)CI [Compound 633, Iodoacetamide] | 84 | –
O=S(=O)(c1cccc2cnccc12)N1CCNCC1 [Compound 634, HA-100] | 71 | –
CC(C)[N+]1(C)[C@@H]2CC[C@H]1C[C@@H](OC(=O)C(CO)c1ccccc1)C2 (some centres unmarked) [Compound 635, Ipratropium bromide] | 118 | –
CC(=O)[C@]1(O)Cc2c(O)c3c(c(O)c2[C@@H](O[C@H]2C[C@H](N)[C@H](O)[C@H](C)O2)C1)C(=O)c1ccccc1C3=O [Compound 636, Idarubicin] | 17 | –

Structure (SMILES) | Compound effect (percent receptor signaling in presence of test compound, relative lux units relative to the SCH23390 control) | % of the SCH23390 effect (percent inhibition of receptor response relative to the SCH23390 control) [%]
COc1ccc2[nH]c(I)c(CCNC(C)=O)c2c1 [Compound 637, 2-Iodomelatonin] | 113 | –
CN([C@@H](Cc1ccc(OS(=O)(=O)c2cccc3cnccc23)cc1)C(=O)N1CCN(c2ccccc2)CC1)S(=O)(=O)c1cccc2cnccc12 [Compound 638, KN-62] | 104 | –
O=S(=O)(c1cccc2c(I)cccc12)N1CCCNCC1 [Compound 641, ML-7] | 85 | –
CCCC(=O)NCCc1c2n(c3ccc(OC)cc13)Cc1ccccc1-2 [Compound 647, IIK7] | 96 | –
CC(C)Cn1c(=O)n(C)c(=O)c2[nH]cnc21 [Compound 649, 3-Isobutyl-1-methylxanthine] | 129 | –
c1ccc2c(c1)OCC(C1=NCCN1)O2 (centres unmarked) [Compound 650, Idazoxan hydrochloride] | 103 | –
CC1CN(S(=O)(=O)c2cccc3cnccc23)CCN1.Cl.Cl (centres unmarked) [Compound 651, 1-(5-Isoquinolinylsulfonyl)-3-methylpiperazine dihydrochloride] | 100 | –
CC1CNCCN1S(=O)(=O)c1cccc2cnccc12.Cl.Cl (centres unmarked) [Compound 653, 1-(5-Isoquinolinylsulfonyl)-2-methylpiperazine dihydrochloride] | 29 | –
COc1ccc2c(c1)c(CC(=O)O)c(C)n2C(=O)c1ccc(Cl)cc1 [Compound 654, Indomethacin] | 100 | –
Nc1nc2[nH]c(=O)cnc2c(=O)[nH]1 [Compound 656, Isoxanthopterin] | 106 | –
CC(=N)NCCCC[C@H](N)C(=O)O.Cl [Compound 659, L-N6-(1-Iminoethyl)lysine hydrochloride] | 101 | –
N[C@@H](Cc1ccc(O)c(I)c1)C(=O)O [Compound 660, 3-Iodo-L-tyrosine] | 100 | –
CC(=N)NCCC[C@H](N)C(=O)O.Cl [Compound 661, L-N5-(1-Iminoethyl)ornithine hydrochloride] | 102 | –
CC[C@H](C)[C@H]1O[C@]2(CC[C@@H]1C)C[C@@H]1C[C@@H](C/C=C(\C)[C@@H](O[C@H]3C[C@H](OC)[C@@H](O[C@H]4C[C@H](OC)[C@@H](O)[C@H](C)O4)[C@H](C)O3)[C@@H](C)/C=C/C=C3\CO[C@@H]4[C@H](O)C(C)=C[C@@H](C(=O)O1)[C@]34O)O2 [Compound 662, Ivermectin] | 101 | –
CCn1ccnc1CC1COc2ccccc2O1 (centres unmarked) [Compound 663, Imiloxan hydrochloride] | 96 | –
Cc1cc(C)c(NC(=O)C[C@H](CC(=O)O)c2cccc3ccccc23)c(C(=O)N2CCC3(CCCC3)CC2)c1 [Compound 664, CR 2945] | 101 | –
CC(C)Cc1ccc([C@H](C)C(=O)O)cc1 [Compound 666, S(+)-Ibuprofen] | 102 | –
C[C@@]1(C2CCCC2)Cc2cc(OCC(=O)O)c(Cl)c(Cl)c2C1=O [Compound 668, R(+)-IAA-94] | 100 | –
CN[C@@H]1C[C@@H](c2ccc(Cl)c(Cl)c2)c2ccccc21 [Compound 669, Indatraline hydrochloride] | 54 | –

same assay, conditions: 10 µM compound, 300 nM dopamine, 2 hr; hit = compound effect <20

Compound effect (percent receptor signaling in presence of test compound, relative lux units relative to the SCH23390 control) [%] | Structure (SMILES)
85 | O=C(O)Cc1c[nH]c2ccc(O)cc12 [Compound 608, 5-Hydroxyindolacetic acid]
118 | Cl.NO [Compound 616, Hydroxylamine hydrochloride]
89 | Cl.NC(N)=NCCNS(=O)(=O)c1cccc2cnccc12 [Compound 619, HA-1004 hydrochloride]
73 | Cl.O[Si](CCCN1CCCCC1)(c1ccc(F)cc1)C1CCCCC1 (centres unmarked) [Compound 621, Hexahydro-sila-difenidol hydrochloride, p-fluoro analog]
126 | CCCCCC(O)CCCC(=O)O.[Na] (centres unmarked) [Compound 623, 5-hydroxydecanoic acid sodium]
23 | O=C1Nc2ccccc2/C1=C1/Nc2ccccc2/C1=N\O [Compound 630, Indirubin-3'-oxime]
97 | CC(C)NNC(=O)c1ccncc1.O=P(O)(O)O [Compound 657, Iproniazid phosphate]

Structure (SMILES) | Compound effect (percent receptor signaling in presence of test compound, relative lux units relative to the SCH23390 control) [%]
CC1CNCCN1S(=O)(=O)c1cccc2cnccc12.Cl.Cl (centres unmarked) [Compound 620, H-7 dihydrochloride] | 38
Br.CCCN(CCC)[C@@H]1CCc2ccc(O)cc2C1 [Compound 625, R-(+)-7-Hydroxy-DPAT hydrobromide] | 85
CC(C(O)c1ccc(O)cc1)N1CCC(Cc2ccccc2)CC1.CC(C(O)c1ccc(O)cc1)N1CCC(Cc2ccccc2)CC1.O=C(O)C(O)C(O)C(=O)O (centres unmarked) [Compound 643, Ifenprodil tartrate] | 64
CCC(NC(C)C)C(O)c1ccc(O)c(O)c1.CS(=O)(=O)O (centres unmarked) [Compound 644, Isotharine mesylate] | 115
NC(N)=NCc1cccc(I)c1.NC(N)=NCc1cccc(I)c1.O=S(=O)(O)O [Compound 665, m-Iodobenzylguanidine hemisulfate] | 96
Cl.Clc1cc(I)cc(Cl)c1NC1=NCCN1 [Compound 667, p-Iodoclonidine hydrochloride] | 83

same assay, conditions: read-out: % of the SCH23390 effect (percent inhibition of receptor response relative to the SCH23390 control)

Structure (SMILES) | inhibition at 10 µM [%]
CC(=O)[C@]1(O)Cc2c(O)c3c(c(O)c2[C@@H](O[C@H]2C[C@H](N)[C@H](O)[C@H](C)O2)C1)C(=O)c1ccccc1C3=O [Compound 636, Idarubicin] | 83

Source: paper PMC3265452 (PLoS Neglected Tropical Diseases, 2012)
